Results published in PMC7448270, “Channeling C1 Metabolism toward S-Adenosylmethionine-Dependent Conversion of Estrogens to Androgens in Estrogen-Degrading Bacteria” (mBio, 2020).

Test system: T1, estradiol/estrogen methyltransferase (EMT; EmtABCD)
T1 construct: gene emtA; native, not purified; cell-free extract of estradiol-grown cells; assignment to emtABCD by proteogenomics; with Estrogen methyltransferase component EmtC; Estrogen methyltransferase component EmtD (oxidoreductase-like, putative reductive cofactor regeneration)
Experiment: UPLC assay of methylation by cell-free extract, Michaelis-Menten
Assay type: biochemical, Denitratisoma oestradiolicum
Details: SAM methyl donor, Ti(III)-citrate, MgCl2, HEPES/KOH pH 8.0, 30°C, anaerobic; crude soluble extract, enzyme not purified

C[C@]12CC[C@@H]3c4ccc(O)cc4CC[C@H]3[C@@H]1CC[C@@H]2O [17β-estradiol]
Km: 35 ± 4 µM

C[C@]12CC[C@@H]3c4ccc(O)cc4CC[C@H]3[C@@H]1CCC2=O [estrone]
Km: 14 ± 3 µM
